Consider 30 compounds from patent US9862716B2, “TRKA kinase inhibitors, compositions and methods thereof” (Merck Sharp & Dohme Corp., priority 2014, dated 2018).

In this test the target is T1, human TrkA receptor (Homo sapiens, UniProt P04629).
T1 construct: host or cells: U2OS cells (PathHunter cell line)
T1 sequence (P04629 33-796): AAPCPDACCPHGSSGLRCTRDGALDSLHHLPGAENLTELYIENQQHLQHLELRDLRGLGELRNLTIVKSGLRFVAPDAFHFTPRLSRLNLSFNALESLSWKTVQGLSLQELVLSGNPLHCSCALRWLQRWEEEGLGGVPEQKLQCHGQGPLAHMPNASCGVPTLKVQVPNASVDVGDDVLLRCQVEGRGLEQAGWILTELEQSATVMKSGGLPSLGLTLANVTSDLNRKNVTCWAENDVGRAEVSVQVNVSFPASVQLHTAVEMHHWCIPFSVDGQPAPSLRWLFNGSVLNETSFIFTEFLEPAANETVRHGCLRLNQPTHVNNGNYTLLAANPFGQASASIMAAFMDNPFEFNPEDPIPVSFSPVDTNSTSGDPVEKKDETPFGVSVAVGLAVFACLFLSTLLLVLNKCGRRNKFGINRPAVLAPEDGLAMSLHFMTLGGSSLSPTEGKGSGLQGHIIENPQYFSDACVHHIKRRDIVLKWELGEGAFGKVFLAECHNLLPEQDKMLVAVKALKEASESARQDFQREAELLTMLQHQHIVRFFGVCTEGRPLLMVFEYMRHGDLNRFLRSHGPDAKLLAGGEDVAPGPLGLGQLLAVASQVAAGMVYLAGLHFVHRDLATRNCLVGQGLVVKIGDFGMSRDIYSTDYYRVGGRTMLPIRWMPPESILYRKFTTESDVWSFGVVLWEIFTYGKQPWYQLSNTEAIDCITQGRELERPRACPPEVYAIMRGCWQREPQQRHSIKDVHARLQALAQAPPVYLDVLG
As to the kind of experiment: DiscoverX PathHunter TrkA functional assay (NGF-stimulated U2OS cells). The class given is cell-based. As to conditions: U2OS cells expressing human TrkA-PK, Shc1-EA and p75NTR; compound 1 h, then NGF at ~80% of maximal response for 3 h; luminescence.
A word on the IC50: it is the concentration needed to halve the response being measured. Regarding `Cn1ccc(-c2cc(C(=O)Nc3c(-c4ccccc4)nc4ccc(F)cn34)ccc2C(F)(F)F)n1` [Compound 21, N-(6-fluoro-2-phenylimidazo[1,2-a]pyridin-3-yl)-3-(1-methyl-1H-pyrazol-3-yl)-4-(trifluoromethyl) benzamide], 3.8 nM corresponded to half-maximal inhibition (IC50). In the case of `Cn1ccc(-c2cc(C(=O)Nc3c(-c4ccccc4)nc4c(F)cccn34)ccc2C(F)(F)F)n1` [Compound 22, N-(8-fluoro-2-phenylimidazo[1,2-a]pyridin-3-yl)-3-(1-methyl-1H-pyrazol-3-yl)-4-(trifluoromethyl) benzamide], the IC50 worked out at 1.9 nM.

Compound `Cn1ccc(-c2cc(C(=O)Nc3c(-c4ccncc4)nc4ccccn34)c(Cl)cc2C(F)(F)F)n1` [Compound 23, 2-chloro-5-(1-methyl-1H-pyrazol-3-yl)-N-(2-pyridin-4-ylimidazo[1,2-a]pyridin-3-yl)-4-(trifluoromethyl) benzamide] yielded an IC50 of 2 nM. With `Cn1ccc(-c2cc(C(=O)Nc3c(-c4ccccc4)nc4ncccn34)c(Cl)cc2C(F)(F)F)n1` [Compound 24, 2-chloro-5-(1-methyl-1H-pyrazol-3-yl)-N-(2-phenylimidazo[1,2-a]pyrimidin-3-yl)-4-(trifluoromethyl) benzamide] the figure was 2.8 nM; with `CNC(=O)c1ccn2c(NC(=O)c3ccc(C(F)(F)F)c(-c4ccn(C)n4)c3)c(-c3ccccc3)nc2c1` [Compound 25, N-methyl-3-({[3-(1-methyl-1H-pyrazol-3-yl)-4-(trifluoromethyl)phenyl]carbonyl}amino)-2-phenylimidazo[1,2-a]pyridine-7-carboxamide], 1.4 nM. With `Cn1ccc(-c2cc(C(=O)Nc3c(-c4ccccc4)nc4cc(CO)ccn34)ccc2C(F)(F)F)n1` [Compound 26, N-[7-(hydroxymethyl)-2-phenylimidazo[1,2-a]pyridin-3-yl]-3-(1-methyl-1H-pyrazol-3-yl)-4-(trifluoromethyl) benzamide] the figure was 1.4 nM; with `Cn1ccc(-c2cc(C(=O)Nc3c(-c4ccccc4)nc4cc(C(C)(C)O)ccn34)ccc2C(F)(F)F)n1` [Compound 27, N-[7-(1-hydroxy-1-methylethyl)-2-phenylimidazo[1,2-a]pyridin-3-yl]-3-(1-methyl-1H-pyrazol-3-yl)-4-(trifluoromethyl) benzamide], 1.8 nM; with `CN(C)C(=O)c1ccn2c(NC(=O)c3ccc(C(F)(F)F)c(-c4ccn(C)n4)c3)c(-c3ccccc3)nc2c1` [Compound 28, N,N-dimethyl-3-({[3-(1-methyl-1H-pyrazol-3-yl)-4-(trifluoromethyl)phenyl]carbonyl}amino)-2-phenylimidazo[1,2-a]pyridine-7-carboxamide], 1.3 nM.

In turn, `Cn1ccc(-c2cc(C(=O)Nc3c(-c4ccccc4)nc4cc(C(=O)N5CCC5)ccn34)ccc2C(F)(F)F)n1` [Compound 29, N-[7-(azetidin-1-ylcarbonyl)-2-phenylimidazo[1,2-a]pyridin-3-yl]-3-(1-methyl-1H-pyrazol-3-yl)-4-(trifluoromethyl) benzamide] displayed a half-inhibitory concentration (IC50) of 1.4 nM. For the compound `O=C(Nc1c(-c2ccccc2)nc2ccccn12)c1cc(-c2ncccn2)c(Cl)cc1F` [Compound 30, 4-chloro-2-fluoro-N-(2-phenylimidazo[1,2-a]pyridin-3-yl)-5-pyrimidin-2-ylbenzamide], the IC50 was 40 nM. Under `Cn1ccc(-c2cc(C(=O)Nc3nc4ccccc4nc3-c3ccccc3)ccc2C(F)(F)F)n1` [Compound 31, 3-(1-methyl-1H-pyrazol-3-yl)-N-(3-phenylquinoxalin-2-yl)-4-(trifluoromethyl) benzamide] stands 27 nM; under `Cn1ccc(-c2cc(C(=O)Nc3c(-c4ccccc4)nc4ccccn34)c(O)cc2C(F)(F)F)n1` [Compound 32, 2-hydroxy-5-(1-methyl-1H-pyrazol-3-yl)-N-(2-phenylimidazo[1,2-a]pyridin-3-yl)-4-(trifluoromethyl) benzamide], 477 nM; under `Cn1ccc(-c2cc(C(=O)Nc3c(-c4ccccc4)nc4ccccn34)c(C#N)cc2C(F)(F)F)n1` [Compound 33, 2-cyano-5-(1-methyl-1H-pyrazol-3-yl)-N-(2-phenylimidazo[1,2-a]pyridin-3-yl)-4-(trifluoromethyl) benzamide], 532 nM. `O=C(Nc1c(-c2ccccc2)nc2ccccn12)c1ccc(C(F)(F)F)c(-c2nc[nH]n2)c1` [Compound 34, N-(2-phenylimidazo[1,2-a]pyridin-3-yl)-3-(1H-1,2,4-triazol-3-yl)-4-(trifluoromethyl) benzamide] came in with an IC50 of 58 nM. With `Cn1ccc(-c2cc(C(=O)Nc3c(-c4ccccc4)nc4ccccn34)c(F)cc2C(F)(F)F)n1` [Compound 35, 2-fluoro-5-(1-methyl-1H-pyrazol-3-yl)-N-(2-phenylimidazo[1,2-a]pyridin-3-yl)-4-(trifluoromethyl) benzamide] the figure was 0.49 nM. `Cn1ccc(-c2cc(C(=O)Nc3c(-c4ccccc4)nc4ccc(C(C)(C)O)cn34)ccc2C(F)(F)F)n1` [Compound 36, N-[6-(1-hydroxy-1-methylethyl)-2-phenylimidazo[1,2-a]pyridin-3-yl]-3-(1-methyl-1H-pyrazol-3-yl)-4-(trifluoromethyl) benzamide] registered a half-maximal inhibitory concentration (IC50) of 0.34 nM. The compound `Cn1ccc(-c2cc(C(=O)Nc3c(-c4ccccc4)nc4ccc(CO)cn34)ccc2C(F)(F)F)n1` [Compound 37, N-[6-(hydroxymethyl)-2-phenylimidazo[1,2-a]pyridin-3-yl]-3-(1-methyl-1H-pyrazol-3-yl)-4-(trifluoromethyl) benzamide] yielded an IC50 of 1.8 nM. With `Cn1ccc(-c2cc(C(=O)Nc3c(-c4ccccc4)nc4c(CO)cccn34)ccc2C(F)(F)F)n1` [Compound 38, N-[8-(hydroxymethyl)-2-phenylimidazo[1,2-a]pyridin-3-yl]-3-(1-methyl-1H-pyrazol-3-yl)-4-(trifluoromethyl) benzamide] the figure was 2.4 nM. Under `Cn1ccc(-c2cc(C(=O)Nc3c(-c4ccccc4)nc4cc(Br)ccn34)ccc2C(F)(F)F)n1` [Compound 39, N-(7-bromo-2-phenylimidazo[1,2-a]pyridin-3-yl)-3-(1-methyl-1H-pyrazol-3-yl)-4-(trifluoromethyl) benzamide] stands 2.7 nM; under `O=C(Nc1c(-c2ccccc2)nc2ccccn12)c1cc(-c2cc[nH]n2)c(C(F)(F)F)cc1F` [Compound 40, 2-fluoro-N-(2-phenylimidazo[1,2-a]pyridin-3-yl)-5-(1H-pyrazol-3-yl)-4-(trifluoromethyl) benzamide], 2.7 nM. With `C[C@H](O)c1ccn2c(NC(=O)c3ccc(C(F)(F)F)c(-c4ccn(C)n4)c3)c(-c3ccccc3)nc2c1` [Compound 41, N-{7-[(1S)-1-hydroxyethyl]-2-phenylimidazo[1,2-a]pyridin-3-yl}-3-(1-methyl-1H-pyrazol-3-yl)-4-(trifluoromethyl) benzamide] the figure was 0.96 nM. The compound `CC(C)(O)c1ccn2c(NC(=O)c3ccc(C(F)(F)F)c(-c4ncccn4)c3)c(-c3ccccc3)nc2c1` [Compound 43, N-[7-(1-hydroxy-1-methylethyl)-2-phenylimidazo[1,2-a]pyridin-3-yl]-3-pyrimidin-2-yl-4-(trifluoromethyl) benzamide] registered an IC50 of 7.9 nM. With `CC(C)(O)c1ccc2nc(-c3ccccc3)c(NC(=O)c3ccc(C(F)(F)F)c(-c4ncccn4)c3)n2c1` [Compound 44, N-[6-(1-hydroxy-1-methylethyl)-2-phenylimidazo[1,2-a]pyridin-3-yl]-3-pyrimidin-2-yl-4-(trifluoromethyl) benzamide] the figure was 1.4 nM; with `COC1CN(Cc2ccn3c(NC(=O)c4ccc(C(F)(F)F)c(-c5ccn(C)n5)c4)c(-c4ccccc4)nc3c2)C1` [Compound 45, N-{7-[(3-methoxyazetidin-1-yl)methyl]-2-phenylimidazo[1,2-a]pyridin-3-yl}-3-(1-methyl-1H-pyrazol-3-yl)-4-(trifluoromethyl) benzamide], 5 nM; with `Cc1coc(-c2cc(C(=O)Nc3c(-c4ccccc4)nc4cc(C(C)(C)O)ccn34)ccc2C(F)(F)F)n1` [Compound 46, N-[7-(1-hydroxy-1-methylethyl)-2-phenylimidazo[1,2-a]pyridin-3-yl]-3-(4-methyl-1,3-oxazol-2-yl)-4-(trifluoromethyl) benzamide], 0.44 nM. With `Cn1ccc(-c2cc(C(=O)Nc3c(-c4ccccc4)nc4ccc(CN5CC(F)C5)cn34)ccc2C(F)(F)F)n1` [Compound 47, N-{6-[(3-fluoroazetidin-1-yl)methyl]-2-phenylimidazo[1,2-a]pyridin-3-yl}-3-(1-methyl-1H-pyrazol-3-yl)-4-(trifluoromethyl) benzamide] the figure was 8.8 nM; with `Cn1ccc(-c2cc(C(=O)Nc3c(-c4ccccc4)nc4cc(C(C)(C)O)ccn34)c(F)cc2C(F)(F)F)n1` [Compound 50, 2-fluoro-N-[7-(1-hydroxy-1-methylethyl)-2-phenylimidazo[1,2-a]pyridin-3-yl]-5-(1-methyl-1H-pyrazol-3-yl)-4-(trifluoromethyl) benzamide], 0.45 nM; with `CC(C)(O)c1ccn2c(NC(=O)c3cc(-c4ncccn4)c(C(F)(F)F)cc3F)c(-c3ccccc3)nc2c1` [Compound 53, 2-fluoro-N-[7-(1-hydroxy-1-methylethyl)-2-phenylimidazo[1,2-a]pyridin-3-yl]-5-pyrimidin-2-yl-4-(trifluoromethyl) benzamide], 1.1 nM. With `COc1ccn2c(NC(=O)c3cc(-c4ncccn4)c(C(F)(F)F)cc3F)c(-c3ccccc3)nc2c1` [Compound 59, 2-fluoro-N-(7-methoxy-2-phenylimidazo[1,2-a]pyridin-3-yl)-5-pyrimidin-2-yl-4-(trifluoromethyl) benzamide] the figure was 1.7 nM. `Cc1ccn(-c2cc(C(=O)Nc3c(-c4ccccc4)nc4cc(C(C)(C)O)ccn34)ccc2C(F)(F)F)n1` [Compound 60, N-[7-(1-hydroxy-1-methylethyl)-2-phenylimidazo[1,2-a]pyridin-3-yl]-3-(3-methyl-1H-pyrazol-1-yl)-4-(trifluoromethyl) benzamide] returned an IC50 of 14 nM.
